Assays:
[1] = target: Mitogen-activated protein kinase 1 (Homo sapiens, UniProt P28482); assay: DRUGMATRIX: Protein Serine/Threonine Kinase, ERK2 enzyme inhibition (substrate: Myelin Basic Protein); design: species or system Escherichia coli; conditions: Not Active = under 50% inhibition at 10 µM
[2] = target: Melanocortin receptor 3 (Homo sapiens, UniProt P41968); assay type: cell membranes, HEK293, Membrane; note: in other assays of this panel Not Active means under 50% inhibition at 10 µM
[3] = target: T1, Endothelin-1 receptor (Homo sapiens, UniProt P25101); assay type: cell membranes, CHO-K1, Membrane; conditions: cho-k1; note: in other assays of this panel Not Active means under 50% inhibition at 10 µM
T1 sequence (P25101 whole entry): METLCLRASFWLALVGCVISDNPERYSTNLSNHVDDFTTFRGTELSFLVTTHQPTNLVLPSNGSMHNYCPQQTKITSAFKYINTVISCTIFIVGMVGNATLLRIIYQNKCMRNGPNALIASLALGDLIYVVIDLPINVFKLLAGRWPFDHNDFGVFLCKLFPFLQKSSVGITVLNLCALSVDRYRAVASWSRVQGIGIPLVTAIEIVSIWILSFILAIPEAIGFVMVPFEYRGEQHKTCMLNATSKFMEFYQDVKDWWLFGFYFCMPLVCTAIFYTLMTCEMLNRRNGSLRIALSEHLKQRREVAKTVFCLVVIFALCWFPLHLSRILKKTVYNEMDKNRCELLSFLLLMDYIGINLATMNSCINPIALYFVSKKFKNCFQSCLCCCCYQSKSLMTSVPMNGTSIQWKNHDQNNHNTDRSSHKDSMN

[4] = DRUGMATRIX: GABAA, Chloride Channel, TBOB radioligand binding (ligand: [3H] TBOB); assay type: cell membranes, Rattus norvegicus, Wistar, Cerebral cortex, Membrane; conditions: Not Active = under 50% inhibition at 10 µM
[5] = DRUGMATRIX: Nicotinic Acetylcholine radioligand binding (ligand: [125I] Epibatidine); assay type: cell membranes, Membrane; conditions: imr-32; Not Active = under 50% inhibition at 10 µM
[6] = target: T2, Nitric oxide synthase, inducible (Mus musculus, UniProt P29477); design: species or system Escherichia coli;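 note: inhibition of iNOS enzyme activity measured with L-arginine as substrate; in other assays of this panel Not Active means under 50% inhibition at 10 µM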
T2 sequence (P29477 whole entry): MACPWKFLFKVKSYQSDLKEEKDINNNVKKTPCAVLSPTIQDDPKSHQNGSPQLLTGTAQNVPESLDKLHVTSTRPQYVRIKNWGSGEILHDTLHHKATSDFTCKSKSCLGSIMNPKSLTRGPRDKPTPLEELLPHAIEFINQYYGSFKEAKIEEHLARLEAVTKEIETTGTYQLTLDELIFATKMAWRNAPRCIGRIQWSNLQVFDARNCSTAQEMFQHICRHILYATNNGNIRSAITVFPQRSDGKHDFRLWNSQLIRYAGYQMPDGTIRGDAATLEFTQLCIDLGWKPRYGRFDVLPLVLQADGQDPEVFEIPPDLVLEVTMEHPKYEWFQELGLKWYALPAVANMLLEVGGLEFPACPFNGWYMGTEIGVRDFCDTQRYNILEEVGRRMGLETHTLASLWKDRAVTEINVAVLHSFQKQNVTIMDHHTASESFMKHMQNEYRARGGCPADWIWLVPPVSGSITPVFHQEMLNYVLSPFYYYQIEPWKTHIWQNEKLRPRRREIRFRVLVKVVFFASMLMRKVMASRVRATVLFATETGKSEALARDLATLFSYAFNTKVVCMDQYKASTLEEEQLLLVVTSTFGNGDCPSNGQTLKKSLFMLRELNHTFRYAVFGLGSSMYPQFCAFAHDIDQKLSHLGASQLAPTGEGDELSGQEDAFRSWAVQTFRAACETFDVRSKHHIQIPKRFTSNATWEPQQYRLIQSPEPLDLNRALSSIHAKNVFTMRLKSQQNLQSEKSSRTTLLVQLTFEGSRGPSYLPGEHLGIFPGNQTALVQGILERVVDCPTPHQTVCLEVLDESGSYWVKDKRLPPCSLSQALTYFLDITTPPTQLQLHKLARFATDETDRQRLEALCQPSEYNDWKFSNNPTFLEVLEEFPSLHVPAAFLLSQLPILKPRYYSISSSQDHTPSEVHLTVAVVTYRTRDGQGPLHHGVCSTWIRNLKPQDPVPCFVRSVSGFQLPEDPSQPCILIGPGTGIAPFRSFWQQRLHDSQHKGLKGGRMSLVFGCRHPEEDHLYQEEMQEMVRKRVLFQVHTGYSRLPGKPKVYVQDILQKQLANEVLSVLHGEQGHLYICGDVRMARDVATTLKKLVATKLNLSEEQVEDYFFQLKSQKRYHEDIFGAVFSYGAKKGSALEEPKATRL

[7] = target: Tyrosine-protein kinase Fyn (Homo sapiens, UniProt P06241); assay: biochemical; assay type: cell-based, Insect cells;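 note: enzymatic inhibition of Fyn kinase activity measured with Poly(Glu:Tyr) as the phosphorylation substrate; in other assays of this panel Not Active means under 50% inhibition at 10 µM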
Tyrosine-protein kinase Fyn, sequence (P06241 whole entry): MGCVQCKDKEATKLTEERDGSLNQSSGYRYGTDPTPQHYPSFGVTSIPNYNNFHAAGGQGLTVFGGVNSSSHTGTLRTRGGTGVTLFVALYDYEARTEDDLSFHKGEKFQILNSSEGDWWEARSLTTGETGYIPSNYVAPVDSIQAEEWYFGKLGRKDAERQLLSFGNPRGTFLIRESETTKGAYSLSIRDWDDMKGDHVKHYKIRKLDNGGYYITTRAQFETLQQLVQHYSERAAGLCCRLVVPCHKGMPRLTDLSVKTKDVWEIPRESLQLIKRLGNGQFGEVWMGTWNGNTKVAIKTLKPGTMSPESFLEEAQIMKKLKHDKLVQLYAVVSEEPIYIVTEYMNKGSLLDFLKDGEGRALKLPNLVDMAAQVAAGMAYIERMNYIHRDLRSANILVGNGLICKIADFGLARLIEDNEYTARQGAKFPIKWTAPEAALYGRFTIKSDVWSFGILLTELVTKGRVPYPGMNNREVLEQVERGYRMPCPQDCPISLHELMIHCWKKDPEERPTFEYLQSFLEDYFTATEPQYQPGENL

Melanocortin receptor 3, sequence (P41968 whole entry): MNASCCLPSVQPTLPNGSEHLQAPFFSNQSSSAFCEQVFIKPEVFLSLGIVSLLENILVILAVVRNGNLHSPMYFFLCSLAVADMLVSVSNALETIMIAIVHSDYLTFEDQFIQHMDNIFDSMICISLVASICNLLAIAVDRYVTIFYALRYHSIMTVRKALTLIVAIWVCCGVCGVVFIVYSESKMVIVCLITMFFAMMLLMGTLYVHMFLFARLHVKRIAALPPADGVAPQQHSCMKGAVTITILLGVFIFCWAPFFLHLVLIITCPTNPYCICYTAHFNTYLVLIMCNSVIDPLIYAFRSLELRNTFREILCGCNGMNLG
Mitogen-activated protein kinase 1, sequence (P28482 whole entry): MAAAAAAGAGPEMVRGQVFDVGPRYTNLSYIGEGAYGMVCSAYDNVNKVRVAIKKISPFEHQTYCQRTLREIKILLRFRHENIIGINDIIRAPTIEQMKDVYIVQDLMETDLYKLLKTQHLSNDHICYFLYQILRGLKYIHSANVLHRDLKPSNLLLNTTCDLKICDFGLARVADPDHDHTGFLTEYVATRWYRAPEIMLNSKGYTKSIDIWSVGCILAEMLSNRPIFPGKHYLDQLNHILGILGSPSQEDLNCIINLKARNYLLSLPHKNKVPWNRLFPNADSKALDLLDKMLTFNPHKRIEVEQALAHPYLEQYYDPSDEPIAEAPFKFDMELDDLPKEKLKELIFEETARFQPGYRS

Compound | IC50 [1] | IC50 ([2]; hek293) | IC50 [3] | IC50 [4] | Ki [4] | IC50 [5] | Ki [5] | IC50 [6] | IC50 ([7]; insect cells) | IC50 ([7]; read-out: IC50) | IC50 ([2]; read-out: IC50) | Ki ([2]; read-out: Ki)
CC[C@@H](CO)NC(=O)[C@@H]1C=C2c3cccc4[nH]cc(c34)C[C@H]2N(C)C1 [METHYLERGONOVINE] | Not Active | Not Active | Not Active | Not Active | Not Active | Not Active | Not Active | Not Active | Not Active | – | – | –
COc1nc(C)nc(Cl)c1NC1=NCCN1 [MOXONIDINE] | Not Active | Not Active | Not Active | Not Active | Not Active | Not Active | Not Active | Not Active | Not Active | – | – | –
COc1c(C)c2c(c(O)c1C/C=C(\C)CCC(=O)O)C(=O)OC2 [MYCOPHENOLIC ACID] | Not Active | Not Active | Not Active | Not Active | Not Active | Not Active | Not Active | Not Active | Not Active | – | – | –
O=c1ncn2nc(Sc3ccc(F)cc3F)ccc2c1-c1c(Cl)cccc1Cl [NEFLAMAPIMOD] | Not Active | Not Active | Not Active | Not Active | Not Active | Not Active | Not Active | Not Active | Not Active | – | – | –
CN1CCN(CCCN2c3ccccc3Sc3ccc(Cl)cc32)CC1 [PROCHLORPERAZINE] | Not Active | Not Active | Not Active | – | – | – | – | Not Active | – | 5.68 µM | – | –
CO[C@H]1/C=C/O[C@@]2(C)Oc3c(C)c(O)c4c(O)c(c(/C=N/N5CCN(C)CC5)c(O)c4c3C2=O)NC(=O)/C(C)=C\C=C\[C@H](C)[C@H](O)[C@@H](C)[C@@H](O)[C@@H](C)[C@H](OC(C)=O)[C@@H]1C [RIFAMPIN] | Not Active | Not Active | Not Active | Not Active | Not Active | Not Active | Not Active | Not Active | Not Active | – | – | –
Nc1nc2ccc(OC(F)(F)F)cc2s1 [RILUZOLE] | Not Active | Not Active | Not Active | Not Active | Not Active | Not Active | Not Active | Not Active | Not Active | – | – | –
Cc1nc2n(c(=O)c1CCN1CCC(c3noc4cc(F)ccc34)CC1)CCCC2 [RISPERIDONE] | Not Active | Not Active | Not Active | – | – | – | – | Not Active | Not Active | – | – | –
C=CCC1(C(C)CCC)C(=O)NC(=O)NC1=O (stereo not drawn) [SECOBARBITAL] | Not Active | Not Active | Not Active | Not Active | Not Active | Not Active | Not Active | Not Active | Not Active | – | – | –
C[C@@H]1CN(c2c(F)c(N)c3c(=O)c(C(=O)O)cn(C4CC4)c3c2F)C[C@H](C)N1 [SPARFLOXACIN] | Not Active | Not Active | Not Active | Not Active | Not Active | Not Active | Not Active | Not Active | Not Active | – | – | –
Cc1noc(NS(=O)(=O)c2ccc(N)cc2)c1C [SULFISOXAZOLE] | Not Active | Not Active | – | Not Active | Not Active | Not Active | Not Active | Not Active | Not Active | – | – | –
CC/C(=C(\c1ccccc1)c1ccc(OCCN(C)C)cc1)c1ccccc1 [TAMOXIFEN] | Not Active | – | Not Active | – | – | – | – | Not Active | – | 1.2 µM | 19.9 µM | 17.3 µM
CC(C)N1CCN(c2ccc(OCC3COC(Cn4cncn4)(c4ccc(Cl)cc4Cl)O3)cc2)CC1 (stereo not drawn) [TERCONAZOLE] | Not Active | Not Active | Not Active | Not Active | Not Active | – | – | Not Active | – | 10.9 µM | – | –
